Consider 2 compounds from patent US6692927B2, “Bax degradation involvement in tumor survival and progression” (University of South Florida, priority 2000, dated 2004).

The test system of assay [1] is human breast cancer (SK-BR-3, MDA-MB-468) cells. The assay is described as follows: cellular detachment of breast cancer cells. As to conditions: breast cancer versus normal (MCF-10A) cells. It is filed as cell-based. The method, then: (§1) Proteasome inhibitors selectively induce apoptosis in human breast cancer, but not normal, cells. […] Cells of both human breast cancer lines became detached in a lactacystin-concentration-dependent manner (FIG. 3). No detachment was induced in the normal human breast cells MCF-10A after treatment with lactacystin for 48 hours (FIG. 3) or even 72 hours. Proteasome inhibition-induced detachment of breast cancer cells is due to apoptosis (An et al., in press).

Assay [2] concerns Jurkat T cells overexpressing Bcl-2. The assay is described as follows: Western blot, fractionation, RT-PCR, immunostaining and IP in Bcl-2-overexpressing Jurkat T cells. As to conditions: for cytoplasmic Bax-immunofluorescent signals: immunofluorescent staining. It is filed as cell-based, human. The method, then:
FIGS. 7A-7H show proteasome inhibitor LLnV induces Bax accumulation, cytochrome c release and PARP cleavage in Bcl-2-overexpressing Jurkat T cells. (FIGS. 7A-7C) Jurkat T cells overexpressing Bcl-2 (0 h) were treated with 50 μM LLnV for up to 8 h, followed by preparation of cytosol and mitochondrial fractions. Both fractions were immunoblotted first by an antibody to cytochrome c (Cyto C, MW 17 kDa; FIG. 7A and FIG. 7C) and then reblotted by anti-cytochrome oxidase subunit II (COX, MW 26 kDa; FIG. 7B). Note: 20 μg protein from the cytosol, and 40 μg protein from the mitochondrial, preparation was used in each lane. (FIGS. 7D-7G) Whole cell extracts (70 μg per lane) of the above treated cells were immunoblotted with specific antibodies to PARP (FIG. 7D), Bax (clone N-20; FIG. E), Bcl-2 (FIG. 7F), or actin (FIG. 7G). Molecular masses of PARP, the PARP cleavage fragment (p85), Bax, Bcl-2 and actin are 113, 85, 21, 26 and 40 kDa, respectively. Positions of protein markers are indicated at right. (FIG. 7H) Bcl-2-expressing Jurkat cells (Control) were treated with 50 μM LLnV for 8 h, followed by RT-PCR. For the first-strand cDNA synthesis, 0.2 (lanes 1, 4), 0.6 (lanes 2, 5) and 1.8 μg (lanes 3, 6) of the total RNA were used. The positions of Bax (538 bp) and G3PDH mRNA (983 bp) are indicated. Lane M is DNA molecular weight marker.
FIGS. 8A-8D show proteasome inhibition accumulates Bax to mitochondria/cytoplasm and increases interaction between Bax and Bcl-2 proteins. Jurkat cells (0 h; FIG. 8A and FIG. 8B) or Jurkat cells overexpressing Bcl-2 (0 h; FIG. 8C and FIG. 8D) were treated by either 10 μM lactacystin (FIGS. 8A-8C), 50 μM LLnV (FIG. 8D), or 50 μM LLM (FIG. 8A and FIG. 8B) for the indicated hours. (FIG. 8A and FIG. 8B) Western blotting with antibodies to PARP and Bax were performed as described in FIG. 7. (FIG. 8C) Immunohistochemistry (see MATERIALS AND METHODS). Localization of Bax protein (green) and nuclei (red) are shown. (FIG. 8D) Bax immunoprecipitates, prepared by an agarose-conjugated N-20 Bax antibody, were immunoblotted first with the 6A7 Bax antibody (upper) and then reblotted with a Bcl-2 antibody (lower).
Cell Culture and Drug Treatment: Human breast cancer MCF-7 cells, Jurkat T cells, and Jurkat T cells stably transfected with pRcCMV vector containing a complete human bcl-2 cDNA (obtained from Dr. Hong-gang Wang, Moffitt Cancer Center & Research Institute) were grown in RPMI 1640 growth medium (An et al., 1998). Treatment of cell with a proteasome inhibitor was performed as described (An et al., 1998; Dou et al., 1999).
Western blot analysis and Immunoprecipitation: Whole cell extract (An et al., 1996), whole tissue extracts (Loda et al., 1997), and cytosol and mitochondria fractions (Fang et al., 1998) were prepared as described. The enhanced chemiluminescence Western blot assay was performed as described previously (An et al., 1996). To perform a coupled immunoprecipitation-Western blot assay, a whole cell or tissue extract (200 microg protein) was first precleared by incubating with protein A plus protein G agarose beads (Calbiochem) at 4° C. for 2 hours. The collected supernatant was then incubated for at least 3 hours with either […] of agarose beads conjugated with the N20 Bax antibody (Santa Cruz Biotech), or the 6A7 Bax antibody, followed by incubation with protein A/protein G beads at 4° C. overnight. The washed Bax immunoprecipitates were boiled in SDS sample buffer and used for Western blotting with antibodies to Bax, Bcl-2 or ubiquitin.
Immunocytochemistry and Reverse Transcriptase-Polymerase Chain Reaction (RT-PCR): Immunocytochemistry was performed with the rabbit polyclonal Bax antibody (N20) and an FITO-labeled goat anti-rabbit antibody (Southern Biotech.; Birmingham, Ala.), followed by counter-staining nuclei with propidium iodide (Sigma) (Bossy-Wetzel et al., 1998). To perform RT-PCR, total RNA was isolated from Jurkat T cells by an Advantage RT-for-PCR kit (Clontech; palo Alto, Calif.). […]
For orientation: A western blot detects proteins with antibodies after separation by electrophoresis.

For assay [3], the system named is normal human breast cells MCF-10A. The assay is described as follows: cellular detachment of normal breast cells. It counts as cell-based. As to conditions: 48 hours or even 72 hours. The method, then:
as §1

Each structure is given as a SMILES string. Where a SMILES comes first, the peptide text is derived from it. [ ]: non-standard residue; d: D form. The star is where a group is joined. Nva = CCC[C@H](N)C(=O)O; Cbz = O=C(OCc1ccccc1)*

In the case of `CCC[C@@H](C=O)NC(=O)[C@H](CC(C)C)NC(=O)[C@H](CC(C)C)NC(=O)OCc1ccccc1` [LLnV] (Cbz-Leu-Leu-[Nva]-aldehyde), in assay [1], the cellular detachment result was “selectively induced cellular detachment”. In addition, the “level of cytosolic cytochrome c” value in assay [2] (50 μM LLnV, 6 to 8 hours) is on record as “increased”. In assay [2] (50 μM LLnV, 1 hour or longer, Western blot), the “level of Bax protein (Bax/p21)” value was “increased”. The “Bax mRNA level” value in assay [2] (50 μM LLnV, 8 h, RT-PCR) is “remained unchanged”. For the same compound, in assay [2] (50 μM LLnV, Bax immunoprecipitation-Western blot), the “levels of Bax/p21 and Bax-bound Bcl-2 protein” value is given as “significantly increased”. Besides, in assay [2] (50 μM LLnV, up to 8 h), the “induction of apoptosis (PARP cleavage)” value is on record as “cleavage of PARP” and the “levels of the overexpressed Bcl-2 protein” value is reported as “Little changes”. The “cytoplasmic Bax-immunofluorescent signals” value in assay [2] is listed as “markedly increased”.

For `CC(=O)N[C@@H](CSC(=O)[C@]1([C@@H](O)C(C)C)NC(=O)[C@H](C)[C@@H]1O)C(=O)O` [lactacystin], the cellular detachment result in assay [1] is listed as “selectively induced cellular detachment”; in assay [3] it was “No detachment”. Further, the “cytoplasmic Bax-immunofluorescent signals” value in assay [2] was “markedly increased”.
